The subject of assay [1] is C33A (HPV negative) human cervical cell line. Put plainly: Antiproliferative MTT assay, C33A. The class given is cell-based. How it is done: (§1) Antiproliferative effect of the isolated compounds were determined in vitro using SiHa (HPV 16+), HeLa (HPV 18+), C33A (HPV negative) human cervical cell lines, NIH-3T3 mouse embryonic and MRC-5 human fibroblast cells by means of MTT ([3-(4,5-dimethylthiazol-2-yl)-2,5-diphenyltetrazolium bromide]) assay. Briefly, a limited number of human cancer cells (5000/well for SiHa and HeLa cells, 10,000/well in case of C33A cells) were seeded onto a 96-well microplate and became attached to the bottom of the well overnight. On the second day of the procedure, the test substances were added in two concentrations (10.0 and 30.0 µM) in order to obtain preliminary data and then the compounds were applied in serial dilution (applied final concentrations were: 0.1, 0.3, 1.0, 3.0, 10.0, 30.0 µM). Further details of the experiment were described in ref. [30]. All in vitro experiments were carried out on two 96-well dishes with at least five parallel wells [31].

Assay [2] concerns SiHa cells. Put plainly: Cell cycle analysis by flow cytometry. Conditions: 48 or 72 h treatment. The class given is cell-based, human. As to the method:
Cell cycle analysis was performed as described in [32, 33].
Background: In flow cytometry, cells or beads pass a laser one at a time.

Assay [3] concerns MRC-5 (human fibroblast). The assay can be described thus: Antiproliferative MTT assay, MRC-5. The assay is classed as cell-based. Conditions: for IC50: read-out: Calculated IC50 Values (μM) [95% CI]. How it is done: as §1
Assay [4] has as its system SiHa cells. The assay can be described thus: Wound healing assay. The assay is classed as cell-based, human. How it is done: In order to assess antimetastatic activity of the tested compound, wound healing assay was performed. The assay was done with specific wound healing assay chambers (Ibidi GmbH, Gräfelfing, Germany). SiHa cells were collected and 35,000 cells were seeded into both chambers of the insert. Cells were let to be attached to the plate surface during an overnight incubation at 37 °C in 5% CO2 atmosphere and then the inserts were removed. Cell debris was removed by a washing step with PBS. Test compounds were added to the wells in increasing concentrations in 2% FBS containing medium for 24 and 48 h. Migration of the cells into the wound site was visualized by phase-contrast inverted microscope (Axiovert 40, Zeiss, Thornwood, NY, USA). Images were taken with CCD camera at definite intervals and the migration of the cells was calculated as the ratio of wound closure by ImageJ software.

The subject of assay [5] is NIH/3T3 (mouse embryonic fibroblast). The assay can be described thus: Antiproliferative MTT assay, NIH/3T3. The class given is cell-based. Conditions: for IC50: read-out: Calculated IC50 Values (μM) [95% CI]. How it is done:
as §1

In assay [6] the test system is HeLa (HPV 18+) human cervical cell line. Put plainly: Antiproliferative MTT assay, HeLa. The assay is classed as cell-based. Conditions: Homo sapiens. How it is done:
as §1

Assay [7] concerns SiHa (HPV 16+) human cervical cell line. Put plainly: Antiproliferative MTT assay, SiHa. Conditions: for IC50: read-out: Calculated IC50 Values (μM) [95% CI]. The assay is classed as cell-based. As to the method: as §1
The mark [8] stands for this setting: Homo sapiens, C-33-A, read-out: Growth Inhibition Values (%) ± SEM.

This is an account of results in publication PMC8704432, “Isolation, Structure Determination of Sesquiterpenes from Neurolaena lobata and Their Antiproliferative, Cell Cycle Arrest-Inducing and Anti-Invasive Properties against Human Cervical Tumor Cells” (Pharmaceutics, 2021).

Where two headings read alike, the source gives them in different places. Bounds are passed on as bounds.

A word on the IC50: it is the concentration at which inhibition is half-maximal. The term inhibition denotes the relative decrease from the control value, in per cent. Consider `C=C1C(=O)OC2C=C(C)C(OC(C)=O)CC3OC3(C)CC(OC(=O)CC(C)C)C12` (centres unmarked) [Compound 6, Lobatolide C], for which the IC50 in assay [1] (Homo sapiens, C-33-A, read-out: Calculated IC50 Values (μM) [95% CI], C33A, MTT) was 3.2 to 3.6 µM; in assay [1] (read-out: Calculated IC50 Values (μM) [95% CI], C33A, MTT), 3.53 µM; in assay [3] (Homo sapiens, MRC5, MRC-5, MTT), above 11 µM; in assay [3] (MRC-5, MTT), 11.9 µM; in assay [5] (Mus musculus, NIH3T3, NIH/3T3, MTT), above 11 µM; in assay [5] (NIH/3T3, MTT) it was 11.2 µM. Also, the figures for the IC50 in assay [6] (read-out: Calculated IC50 Values (μM) [95% CI]), in assay [7] (Homo sapiens) and in assay [7] were 15.7 µM, 3.2 to 3.6 µM and 3.24 µM, respectively. For the same compound, the inhibition at 10 µM in assay [1] (setting [8]) is 96.55 ± 0.22%; in assay [3] (Homo sapiens, MRC5, MRC-5, 10 μM, MTT, read-out: Growth Inhibition Values (%) ± SEM), below 20%; in assay [5] (Mus musculus, NIH3T3, NIH/3T3, 10 μM, MTT, read-out: Growth Inhibition Values (%) ± SEM), 40.7 ± 2.92%; in assay [6] (10 μM, read-out: Growth Inhibition Values (%) ± SEM) it was below 20%; in assay [7] (Homo sapiens, 10 μM, read-out: Growth Inhibition Values (%) ± SEM), 84.2 ± 2.32%. In addition, the inhibition at 30 µM in assay [1] (setting [8]) is 96.72 ± 0.33%; in assay [3] (Homo sapiens, MRC5, MRC-5, 30 μM, MTT, read-out: Growth Inhibition Values (%) ± SEM), 73 ± 1.64%; in assay [5] (Mus musculus, NIH3T3, NIH/3T3, 30 μM, MTT, read-out: Growth Inhibition Values (%) ± SEM), 96.8 ± 0.25%; in assay [6] (30 μM, read-out: Growth Inhibition Values (%) ± SEM), 91.9 ± 1.23%; in assay [7] (Homo sapiens, 30 μM, read-out: Growth Inhibition Values (%) ± SEM), 84.8 ± 1.89%. In addition, in assay [2], the Cell cycle distribution result is given as “significant concentration-dependent accumulation of cells in the S phase”. For the same compound, the Wound closure was 47% in assay [4] (1.5 µM, 48 h (control 70%)); 12% in assay [4] (3 µM, 24 h (control 30%)); 18% in assay [4] (3 µM, 48 h (control 70%)).
